Consider 20 compounds from ChEMBL document CHEMBL3352001, “2,4-Dialkyl-8,9,10,11-tetrahydrobenzo[g]pyrimido[4,5-c]isoquinoline-1,3,7,12(2H,4H)-tetraones as new leads against Mycobacterium tuberculosis” (Eur J Med Chem, 2014).

≈ marks a conversion by molar mass, not a printed value.

Data set [1] is described as follows: Cytotoxicity against mouse J774A1 cells after 24 hrs by neutral red dye uptake assay. It counts as cell-based. To be noted: J774.A1, 24 h, read-out: I50.
Data set [2] can be described thus: Selectivity index, ratio of I50 for mouse J774A1 cells to GI50 for Mycobacterium tuberculosis H37Rv. To be noted: read-out: Selectivity Index. In kind it is toxicity, cell-based, J774.A1.
Data set [3] deals with Mycobacterium tuberculosis. Kind of data set: Antimycobacterial activity against Mycobacterium tuberculosis H37Rv infected in mouse J774A1 cells assessed as reduction in bacterial load inside the cell at 3.13 ug/mL treatment stated after 24 hrs of infection for 4 days by luminometry. In kind it is functional, J774.A1. Further details: scale not given: the % may be the effect or the level left.

Data set [4] has as its system Mycobacterium tuberculosis. In words: Antimycobacterial activity against Mycobacterium tuberculosis H37Rv infected in mouse J774A1 cells assessed as reduction in bacterial load inside the cell at 6.25 ug/mL treatment stated after 24 hrs of infection for 4 days by luminometry. In kind it is functional, J774.A1. On the set-up: scale not given: the % may be the effect or the level left.

In data set [5] the test system is Salmonella typhimurium. Kind of data set: Genotoxicity in Salmonella typhimurium T104 Genox (recN2-4) expressing lux operon assessed as S/N ratio at 0.1 to 10 ug/mL measured for 4 hrs with 5 mins interval by vitotox assay in presence of S9 fraction. In kind it is toxicity, organism-based. Conditions: salmonella enterica subsp. enterica serovar typhimurium, s9, 4 h.

Data set [6] deals with Salmonella typhimurium. Kind of data set: Genotoxicity in Salmonella typhimurium T104 Genox (recN2-4) expressing lux operon assessed as S/N ratio at 0.1 to 10 ug/mL measured for 4 hrs with 5 mins interval by vitotox assay. In kind it is toxicity, organism-based. To be noted: salmonella enterica subsp. enterica serovar typhimurium.
Data set [7] has as its system Salmonella typhimurium. Kind of data set: Genotoxicity in Salmonella typhimurium Cytox (pr1) expressing lux operon assessed as S/N ratio at 0.1 to 10 ug/mL measured for 4 hrs with 5 mins interval by vitotox assay in presence of S9 fraction. Conditions: salmonella enterica subsp. enterica serovar typhimurium, s9, 4 h. It counts as toxicity, organism-based.
Data set [8] deals with Salmonella typhimurium. In words: Genotoxicity in Salmonella typhimurium Cytox (pr1) expressing lux operon assessed as S/N ratio at 0.1 to 10 ug/mL measured for 4 hrs with 5 mins interval by vitotox assay. In kind it is toxicity, organism-based. To be noted: salmonella enterica subsp. enterica serovar typhimurium.
Data set [9] in a line: Cytotoxicity against mouse J774A1 cells assessed as structural organization of DNA at 0.5 to 5 ug/mL after 24 hrs by Comet assay. It counts as cell-based. Conditions: j774.a1, 24 h.
For data set [10], the system named is Mycobacterium tuberculosis. Kind of data set: Antimycobacterial activity against Mycobacterium tuberculosis H37Rv infected in mouse J774A1 cells assessed as reduction in extracellular bacterial load at 3.13 ug/mL treatment stated after 24 hrs of infection for 4 days by luminometry. In kind it is functional, J774.A1.
The test system of data set [11] is Mycobacterium tuberculosis. Kind of data set: Antimycobacterial activity against Mycobacterium tuberculosis H37Rv infected in mouse J774A1 cells assessed as reduction in bacillary replication at 3.13 ug/mL treatment stated after 24 hrs of infection for 4 days by luminometry. In kind it is functional, J774.A1.
Data set [12] relates to Mycobacterium tuberculosis. Kind of data set: Antimycobacterial activity against Mycobacterium tuberculosis H37Rv infected in mouse J774A1 cells assessed as reduction in bacillary replication at 6.25 ug/mL treatment stated after 24 hrs of infection for 4 days by luminometry. It counts as functional, J774.A1.
For data set [13], the system named is Mycobacterium tuberculosis. In words: Antimycobacterial activity against Mycobacterium tuberculosis H37Rv infected in mouse J774A1 cells assessed as reduction in bacillary replication at 12.5 ug/mL treatment stated after 24 hrs of infection for 4 days by luminometry. It counts as functional, J774.A1.

`Cn1c(=O)c2c3c(cnc2n(C)c1=O)C(=O)C1=C(C3=O)C2CCC1C2` (stereo not given): the IC50 in [1] came to 15.4 µg/mL (≈ 45.5 µM). For the same compound, the selectivity ratio in data set [2] stood at 9.72.

`CCn1c(=O)c2c3c(cnc2n(CC)c1=O)C(=O)C1=C(C3=O)C2CCC1C2` (stereo not given): the IC50 in data set [1] worked out at 18.2 µg/mL (≈ 49.9 µM). Further, in data set [2], the selectivity ratio was 10.8.

Consider `CCCn1c(=O)c2c3c(cnc2n(CCC)c1=O)C(=O)C1=C(C3=O)C2CCC1C2` (stereo not given), for which, in data set [1], the IC50 is 18.7 µg/mL (≈ 47.5 µM). In addition, the selectivity ratio in data set [2] worked out at 18.7.

Regarding `CC(C)n1c(=O)c2c3c(cnc2n(C(C)C)c1=O)C(=O)C1=C(C3=O)C2CCC1C2` (stereo not given), the IC50 in [1] was 9.71 µg/mL (≈ 24.7 µM). Moreover, the selectivity ratio in data set [2] was 10.8. For the same compound, the Activity in [3] was 57.72%; in [4], 98.03%; in [9], “Non-toxic”. In addition, the Ratio in [5] is given as 0.8; in data set [6], 0.8; in data set [7], less than 1.5; in data set [8] it was less than 1.5. Further, the “inhibition (INH)” value in data set [10] came out at 99%.

In the case of `CCCCn1c(=O)c2c3c(cnc2n(CCCC)c1=O)C(=O)C1=C(C3=O)C2CCC1C2` (stereo not given), the IC50 in [1] came to 9.5 µg/mL (≈ 22.5 µM). Moreover, in data set [2], the selectivity ratio is 6.51.

For the compound `CC(C)Cn1c(=O)c2c3c(cnc2n(CC(C)C)c1=O)C(=O)C1=C(C3=O)C2CCC1C2` (stereo not given), the IC50 in [1] was 16.8 µg/mL (≈ 39.8 µM). In addition, the selectivity ratio in data set [2] came to 8.06.

Regarding `CCCCCn1c(=O)c2c3c(cnc2n(CCCCC)c1=O)C(=O)C1=C(C3=O)C2CCC1C2` (stereo not given), the IC50 in data set [1] turned out to be 13.4 µg/mL (≈ 29.7 µM). The selectivity ratio in data set [2] is 10.6.

As for `CC(C)CCn1c(=O)c2c3c(cnc2n(CCC(C)C)c1=O)C(=O)C1=C(C3=O)C2CCC1C2` (stereo not given), in [1], the IC50 came to 22.5 µg/mL (≈ 50 µM). Also, the selectivity ratio in data set [2] is 9.32.

With `CCCCCCn1c(=O)c2c3c(cnc2n(CCCCCC)c1=O)C(=O)C1=C(C3=O)C2CCC1C2` (stereo not given), the IC50 in data set [1] is 12.1 µg/mL (≈ 25.3 µM). The selectivity ratio in [2] came to 9.9.

As to `CCCCCCCn1c(=O)c2c3c(cnc2n(CCCCCCC)c1=O)C(=O)C1=C(C3=O)C2CCC1C2` (stereo not given), the IC50 in data set [1] was determined as 26.5 µg/mL (≈ 52.3 µM). Also, the selectivity ratio in data set [2] came out at 42. In addition, the “inhibition (INH)” value is reported as 65.5% in data set [11], 80.4% in [12] and 91.3% in [13]. Moreover, the Ratio in [5] is 0.8; in [6], 0.8; in data set [7], less than 1.5; in data set [8], less than 1.5. The Activity result in data set [9] is given as “Non-toxic”.

For `Cn1c(=O)c2c3c(cnc2n(C)c1=O)C(=O)C1=C(C3=O)C2CCC1CC2`, in [1], the IC50 worked out at 16.8 µg/mL (≈ 47.8 µM). Besides, in data set [2], the selectivity ratio came to 5.94.

As to `CCn1c(=O)c2c3c(cnc2n(CC)c1=O)C(=O)C1=C(C3=O)C2CCC1CC2`, in [1], the IC50 came to 19.9 µg/mL (≈ 52.4 µM). Besides, in [2], the selectivity ratio came to 7.79.

In the case of `CCCn1c(=O)c2c3c(cnc2n(CCC)c1=O)C(=O)C1=C(C3=O)C2CCC1CC2`, the IC50 in [1] came to 22 µg/mL (≈ 54 µM). For the same compound, in data set [2], the selectivity ratio is 8.5.

Regarding `CC(C)n1c(=O)c2c3c(cnc2n(C(C)C)c1=O)C(=O)C1=C(C3=O)C2CCC1CC2`, the IC50 in data set [1] turned out to be 11.8 µg/mL (≈ 28.9 µM). Besides, the selectivity ratio in [2] was 16.1. Moreover, the “inhibition (INH)” value turned out to be 58.7% in [11] and 82.3% in data set [12]. The Ratio was 0.8 in data set [5], 0.8 in [6], less than 1.5 in [7] and less than 1.5 in [8]. The Activity result in [9] was “Non-toxic”.

As for `CCCCn1c(=O)c2c3c(cnc2n(CCCC)c1=O)C(=O)C1=C(C3=O)C2CCC1CC2`, the IC50 in [1] is 9.87 µg/mL (≈ 22.7 µM). Besides, the selectivity ratio in [2] amounted to 5.36.

For the compound `CC(C)Cn1c(=O)c2c3c(cnc2n(CC(C)C)c1=O)C(=O)C1=C(C3=O)C2CCC1CC2`, in data set [1], the IC50 came out at 20.4 µg/mL (≈ 46.9 µM). The selectivity ratio in [2] stood at 4.69.

In the case of `CCCCCn1c(=O)c2c3c(cnc2n(CCCCC)c1=O)C(=O)C1=C(C3=O)C2CCC1CC2`, the IC50 in data set [1] is 16.4 µg/mL (≈ 35.3 µM). Further, the selectivity ratio in [2] came to 11.

Consider `CC(C)CCn1c(=O)c2c3c(cnc2n(CCC(C)C)c1=O)C(=O)C1=C(C3=O)C2CCC1CC2`, for which the IC50 in data set [1] worked out at 23.4 µg/mL (≈ 50.4 µM). The selectivity ratio in data set [2] was found to be 4.77.

Turning to `CCCCCCn1c(=O)c2c3c(cnc2n(CCCCCC)c1=O)C(=O)C1=C(C3=O)C2CCC1CC2`, the IC50 in [1] was determined as 13.7 µg/mL (≈ 27.9 µM). Moreover, the selectivity ratio in [2] was determined as 10.1.

Take `CCCCCCCn1c(=O)c2c3c(cnc2n(CCCCCCC)c1=O)C(=O)C1=C(C3=O)C2CCC1CC2`: the IC50 in data set [1] amounted to 32.8 µg/mL (≈ 63.1 µM). In addition, the selectivity ratio in [2] is 24.8. For the same compound, the figures for the “inhibition (INH)” value in [12] and in data set [13] were 68.8% and 92%, respectively. Also, the Ratio in [5] is 0.8; in data set [6] it was 0.8; in [7], less than 1.5; in data set [8] it was less than 1.5. Also, the Activity entry in data set [9] is listed as “Non-toxic”.
